Data: EP2769722A1 (Ruprecht-Karls-Universität Heidelberg, priority 2013, dated 2014)
Counter-ions that a name gives are not always drawn.

Target: T1, CA (Human immunodeficiency virus type 1 group M subtype B, UniProt P12493)
T1 construct: a fusion protein of CA with glutathione-S-transferase (CA-GST)
Assay: AlphaScreen: inhibition of CAI-biotin peptide binding to CA-GST
Design: species or system HIV-1
Conditions: inhibition of CAI binding to CA (CA-GST fusion); compounds screened at 0.5-100 µM; read-out: α screen IC50
Method: The AlphaScreen experiments are performed using Perkin Elmer Enspire plate reader in white 96-well ProxiPlates and PBS supplemented with 0.05% Tween20, 2mM DTT, 2% DMSO. First, Streptavidin-coated Donor beads are used to capture the CAI-biotin peptide. In the other solution, a fusion protein of CA with glutathione-S-transferase (CA-GST) is mixed with GSH Acceptor beads. Both mixtures were incubated and then mixed together. To test the ability of prepared organic compounds to inhibit the CAI binding to CA, they are screened at concentrations between 0.5-100 µM and IC50 values are calculated from the influenced signals.
Upon illumination by laser at 680 nm, Donor beads containing the photosensitizer phthalocyanine convert ambient oxygen to an excited form of singlet oxygen ^1O2. Singlet oxygen can within its half-life of ∼ 4µs diffuse approximately 200 nm in solution. If an Acceptor bead is within that proximity, which is mostly upon CA:CAI interaction, energy is transferred from the singlet oxygen to thioxene derivates within the Acceptor and signal at 520 - 620 nm is emitted. […] Table 4: Synthesized and tested compounds

| Compound | IC50 [µM] |
| --- | --- |
| Fc1cc(Nc2ccnc(-c3cccnc3)n2)cc(F)c1F [KP-351, N-(3,4,5-trifluorophenyl)-2-(pyridin-3-yl)pyrimidin-4-amine dihydrochloride] | 60 |
| O=C(NCCF)c1ccc(Nc2ccnc(-c3cccnc3)n2)cc1F [AMR-831, 2-fluoro-N-(2-fluoroethyl)-4-((2-(pyridin-3-yl)pyrimidin-4-yl)amino)benzamide hydrochloride] | 43 |
| Fc1cc(Nc2ccnc(-c3cncc(Br)c3)n2)cc(F)c1F [KP-359, 2-(5-Bromopyridin-3-yl)-N-(3,4,5-trifluorophenyl)pyrimidin-4-amine hydrochloride] | > 100 |
| Fc1ccc(Nc2ccnc(-c3cccnc3)n2)cc1F [KP-343, N-(3,4-difluorophenyl)-2-(pyridin-3-yl)pyrimidin-4-amine dihydrochloride] | 38 |
| CCOC(=O)c1cccc(Nc2ccnc(-c3ccncc3)n2)c1 [AMR-759, ethyl 3-((2-(pyridin-4-yl)pyrimidin-4-yl)amino)benzoate hydrochloride] | > 100 |
| CC(=O)c1ccc(Nc2ccnc(-c3cccnc3)n2)cc1 [AMR-725, 1.-(4-((2-(pyridin-3-yl)pyrimidin-4-yl)amino)phenyl)ethanone hydrochloride] | 53 |
| CCOC(=O)c1ccc(Nc2cc(C(F)(F)F)nc(-c3cccnc3)n2)cc1 [AMR-742, ethyl 4-((2-(pyridin-3-yl)-6-(trifluoromethyl)pyrimidin-4-yl)amino)benzoate hydrochloride] | > 100 |
| CC(=O)c1cccc(Nc2ccnc(-c3cccnc3)n2)c1 [AMR-726, 1-(3-((2-(pyridin-3-yi)pyrimidin-4-yl)amino)phenyl)ethanone hydrochloride] | 39 |
| Cc1cc(Nc2ccc(C(=O)NCCF)cc2F)nc(-c2cccnc2)n1 [AMR-829, 3-fluoro-N-(2-fluoroethyl)-4-((6-methyl-2-(pyridin-3-yl)pyrimidin-4-yl)amino)benzamide hydrochloride] | 15 |
| Fc1ccc(Nc2cc(-c3cccnc3Cl)ncn2)cc1F [KP-374, 6-(2-Chloropyridin-3-yl)-N-(3,4-difluorophenyl)pyrimidin-4-amine hydrochloride] | > 100 |
| CC(=O)c1ccc(Nc2ccnc(-c3ccncc3)n2)cc1 [AMR-748, 1-(4-((2-(pyridin-4-yl)pyrimidin-4-yl)amino)phenyl)ethanone hydrochloride] | > 100 |
| CCN(CC)CCNC(=O)c1ccc(Nc2ccnc(-c3cccnc3)n2)cc1 [AMR-822, N-(2-(diethylamino)ethyl)-4-((2-(pyridin-3-yl)pyrimidin-4-yl)amino)benzamide dihydrochloride] | > 100 |
| Cn1nnc2cc(Nc3cc(-c4cccnc4Cl)ncn3)ccc21 [KP-375, N-[6-(2-Chloropyridin-3-yl)pyrimidin-4-yl]-1-methyl-1H-benzotriazol-5-amine hemihydrochloride] | > 100 |
| Fc1ccc(Nc2ccnc(-c3ccncc3)n2)cc1F [KP-360, N-(3,4-difluorophenyl)-2-(pyridin-4-yl)pyrimidin-4-amine dihydrochloride] | 81 |
| COc1cc(Nc2cc(-c3cccnc3Cl)ncn2)cc(OC)c1OC [KP-377, 6-(2-Chloropyridin-3-yl)-N-(3,4,5-trimethoxyphenyl)pyrimidin-4-amine hydrochloride] | > 100 |
| Cn1nnc2cc(Nc3ccnc(-c4cncc(Br)c4)n3)ccc21 [KP-364, N-[2-(5-bromopyridin-3-yl)pyrimidin-4-yl]-1-methyl-1H-benzotriazol-5-amine dihydrochloride] | 14 |
| FCCNc1ccnc(-c2ccncc2)n1 [AMR-758, N-(2-fluoroethyl)-2-(pyridin-4-yl)pyrimidin-4-amine hydrochloride] | > 100 |
| O=C(O)c1ccc(Nc2ccnc(-c3cccnc3)n2)cc1Cl [AMR-802, 2-chloro-4-((2-(pyridin-3-yl)pyrimidin-4-yl)amino)benzoic acid hydrochloride] | 25 |
| CCOC(=O)c1ccc(Nc2ccnc(-c3ccncc3)n2)cc1 [AMR-747, ethyl 4-((2-(pyridin-4-yl)pyrimidin-4-yl)amino)benzoate hydrochloride] | 28 |
| CC(=O)c1ccc(F)c(Nc2cc(C)nc(-c3cccnc3)n2)c1 [AMR-838, 1-(4-fluoro-3-((6-methyl-2-(pyridin-3-yl)pyrimidin-4-yl)amino)phenyl)ethanone hydrochloride] | > 100 |
| CC(=O)c1ccc(Nc2cc(C)nc(-c3cccnc3)n2)cc1 [AMR-794, 1-(4-((6-methyl-2-(pyridin-3-yl)pyrimidin-4-yl)amino)phenyl)ethanone hydrochloride] | 12 |

| Compound | IC50 [µM] |
| --- | --- |
| CC(=O)c1cc(Nc2cc(C)nc(-c3cccnc3)n2)ccc1F [AMR-839, 1-(2-fluoro-5-((6-methyl-2-(pyridin-3-yl)pyrimidin-4-yl)amino)phenyl)ethanone hydrochloride] | 9 |
| O=C(NCCF)c1cc(Nc2ccnc(-c3cccnc3)n2)ccc1F [AMR-816, 2-fluoro-N-(2-fluoroethyl)-5-((2-(pyridin-3-yl)pyrimidin-4-yl)amino)benzamide dihydrochloride] | 68 |
| CCOC(=O)c1ccc(Nc2cc(C)nc(-c3cccnc3)n2)cc1 [AMR-778, ethyl 4-((6-methyl-2-pyridin-3-yl)pyrimidin-4-yl)amino)benzoate hydrochloride] | 21 |
| O=C(NCC(F)(F)F)c1ccc(Nc2ccnc(-c3cccnc3)n2)cc1 [AMR-771, 4-((2-(pyridin-3-yl)pyrimidin-4-yl)amino)-N-(2,2,2-trifluoroethyl)benzamide hydrochloride] | 55 |
| Cc1ccc(NC(=O)c2cccc(C(F)(F)F)c2)cc1Nc1ccnc(-c2cccnc2)n1 [KP-385, N-(3-(2-(pyridin-3-yl)pyritnidin-4-ylamino)-4-methylphenyl)-3-(trifluoromethyl)benzamide hydrochloride] | > 100 |
| CC(=O)c1cccc(Nc2cc(C)nc(-c3cccnc3)n2)c1 [AMR-830, 1-(3-((6-methyl-2-(pyridin-3-yl)pyrimidin-4-yl)amino)phenyl)ethanone hydrochloride] | 10 |
| Cc1cc(Nc2cc(C(=O)NCCF)ccc2F)nc(-c2cccnc2)n1 [AMR-832, 4-fluoro-N-(2-fluoroethyl)-3-((6-methyl-2-(pyrldin-3-yl)pyrimidin-4-yl)amino)benzamide hydrochloride] | 52 |
| CCOC(=O)c1ccc(Nc2ccnc(-c3cncc(Br)c3)n2)cc1 [KP-352, Ethyl 4-{[2-(5-bromopyridin-3-yl)pyrinudm-4-yl]amino}benzoate hydrochloride] | > 100 |
| Cc1cc(Nc2ccc(C(=O)NCCF)cc2)nc(-c2cccnc2)n1 [AMR-795, N-(2-fluoroethyl)-4-((6-methyl-2-(pyridin-3-yl)pyrimidin-4-yl)amino)benzamide hydrochloride] | 8 |
| Cc1ccc(NC(=O)c2cccc(C(F)(F)F)c2)cc1Nc1ccnc(-c2cncc(Br)c2)n1 [KP-384, N-(3-(2-(5-bromopyridin-3-yl)pyrimidin-4-ylamino-4-methylphenyl)-3-(trifluoromethyl)benzamide hydrochloride] | > 100 |
| CCN(CC)CCOC(=O)c1ccc(Nc2ccnc(-c3cccnc3)n2)cc1F [AMR-827, 2-(diethylamino)ethyl 2-fluoro-4-{(2-(pyridin-3-yl)pyrimidin-4-yl)amino)benzoate hydrochloride] | > 100 |
| O=C(NCCF)c1ccc(Nc2ccnc(-c3cccnc3)n2)cc1 [AMR-792, N-(2-fluoroethyl)-4-((2-(pyridin-3-yl)pyrimidin-4-yl)amino)benzamide hydrochloride] | 34 |
| CCOC(=O)c1ccc(Nc2ccnc(-c3cccnc3)n2)cc1Cl [hydrochloride] | 31 |
| CCOC(=O)c1ccccc1Nc1ccnc(-c2cncc(Br)c2)n1 [KP-363, Ethyl 2-{[2-(5-bromopyridin-3-yl)pyrimidin-4-yl]amino}benzoate hydrochloride] | 58 |
| O=C(NCCF)c1ccc(Nc2ccnc(-c3ccncc3)n2)cc1 [AMR-763, N-(2-fluoroethyl)-4-((2-(pyridin-4-yl)pyrimidin-4-yl)amino)benzamide hydrochloride] | > 100 |
| CCOC(=O)c1ccc(Nc2ccnc(-c3cccnc3)n2)cc1 [AMR-722, ethyl4-((2-(pyridin-3-yl)pyrimidin-4-yl)amino)benzoate hydrochloride] | 19 |
| O=C(NCCF)c1ccc(Nc2ccnc(-c3cccnc3)n2)c(F)c1 [AMR-825, 3-fluoro-N-(2-fluoroethyl)-4-((2-(pyridin-3-yl)pyrimidin-4-yl)amino)benzamide hydrochloride] | 73 |
| CC(=O)c1ccc(Nc2cc(C(F)(F)F)nc(-c3cccnc3)n2)cc1 [AMR-743, 1-(4-((2-(pyridin-3-yl)-6-(trifluoromethyl)pyrimidin-4-yl)amino)phenyl)ethanone hydrochloride] | > 100 |
| CCOC(=O)c1ccc(Nc2cc(-c3cccnc3Cl)ncn2)cc1 [KP-369, Ethyl 4-{[6-(2-chloropyridin-3-yl)pyrimidin-4-yl]amino}benzoate hydrochloride] | > 100 |
| CCOC(=O)c1ccccc1Nc1ccnc(-c2cccnc2)n1 [KP-347, Ethyl 2-{[2-(pyridm-3-yl)pyrimidm-4-yl]amino}benzoate hydrochloride] | > 100 |
| CCOC(=O)c1ccc(Nc2ccnc(-c3cccnc3)n2)c(F)c1 [AMR-823, ethyl 3-fluoro-4-((2-(pyridin-3-yl)pyrimidin-4-yl)amino)benzoate hydrochloride] | 30 |
